This note sets out measurements from patent publication US4265830A, “Naphthalenetetrayletrakis(sulfonylimino)-aryl disulfonic acids and salts thereof” (priority 1979, dated 1981).

Where two headings read alike, the source gives them in different places.

The target in assay [1] is T1, activated human C1 (Homo sapiens, UniProt P09871).
T1 sequence (P09871 16-437 limits assumed): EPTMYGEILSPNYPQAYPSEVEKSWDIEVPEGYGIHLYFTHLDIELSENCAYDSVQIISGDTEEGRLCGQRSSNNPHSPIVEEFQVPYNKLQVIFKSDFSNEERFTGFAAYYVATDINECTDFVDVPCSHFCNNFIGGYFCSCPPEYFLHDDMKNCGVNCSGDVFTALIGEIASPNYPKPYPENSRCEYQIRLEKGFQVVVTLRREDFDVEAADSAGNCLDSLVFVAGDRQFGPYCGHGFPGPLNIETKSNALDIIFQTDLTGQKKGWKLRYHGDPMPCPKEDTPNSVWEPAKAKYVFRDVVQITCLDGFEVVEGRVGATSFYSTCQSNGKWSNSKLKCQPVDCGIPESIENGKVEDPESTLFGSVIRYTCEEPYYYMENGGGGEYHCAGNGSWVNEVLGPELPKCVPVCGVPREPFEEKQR
T1 sequence (P09871 438-688 limits assumed): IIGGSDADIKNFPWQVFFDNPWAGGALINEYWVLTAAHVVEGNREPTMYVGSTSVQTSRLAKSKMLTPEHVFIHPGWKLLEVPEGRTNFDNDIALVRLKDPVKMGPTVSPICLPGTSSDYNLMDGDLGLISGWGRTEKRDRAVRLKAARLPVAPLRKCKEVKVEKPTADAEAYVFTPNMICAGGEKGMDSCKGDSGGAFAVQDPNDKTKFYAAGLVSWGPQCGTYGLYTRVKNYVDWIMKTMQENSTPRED
The assay can be described thus: Test Code 026 (C1 inhibitor). The assay is classed as biochemical. The conditions noted are these: activity in wells, twofold serial dilution assay; higher well number indicates higher activity. The source says: (§1) An active inhibitor protects C2 from C1 and C4; (ii) Test Code 035 (C3-C9 inhibitor)--This test determines the ability of the late components of human complement (C3-C9) to lyse EAC 142 in the presence of appropriate dilutions of the test compound. An active inhibitor protects EAC 142 from lysis by human C3-C9; (iii) Test Code 036 (C-Shunt inhibitor)--In this test human erythrocytes rendered fragile are lysed in autologous serum via the shunt pathway activated by cobra venom factor in the presence of appropriate dilutions of the test compound. Inhibition of the shunt pathway results in failure of lysis; (iv) Forssman Vasculitis Test--Here, the well known complement dependent lesion, Forssman vasculitis, is produced in guinea pigs by intradermal injection of rabbit anti-Forssman antiserum. […] Percent inhibition is calculated by comparison with simultaneous controls. […]

Assay [2] concerns late components of human complement (C3-C9). The experiment in a line: Test Code 035 (C3-C9 inhibitor), lysis of EAC 142. The assay is classed as biochemical. Conditions: activity in wells, twofold serial dilution assay; higher well number indicates higher activity.
From the text: as §1

In assay [3] the test system is shunt pathway. The assay can be described thus: Test Code 036 (C-Shunt inhibitor), lysis of human erythrocytes in autologous serum activated by cobra venom factor. The assay is classed as cell-based. Conditions: activity in wells, twofold serial dilution assay; higher well number indicates higher activity.
From the text: as §1

Assay [4] relates to complement activity. The experiment in a line: Guinea Pig Intraperitoneal Test (GPIP), serum complement activity. The assay is classed as in vivo. The conditions noted are these: Cavia porcellus, ip, 200 mg./kg. i.p., vs simultaneous controls. The source says:
An active inhibitor protects C2 from C1 and C4; (ii) Test Code 035 (C3-C9 inhibitor)--This test determines the ability of the late components of human complement (C3-C9) to lyse EAC 142 in the presence of appropriate dilutions of the test compound. An active inhibitor protects EAC 142 from lysis by human C3-C9; (iii) Test Code 036 (C-Shunt inhibitor)--In this test human erythrocytes rendered fragile are lysed in autologous serum via the shunt pathway activated by cobra venom factor in the presence of appropriate dilutions of the test compound. Inhibition of the shunt pathway results in failure of lysis; (iv) Forssman Vasculitis Test--Here, the well known complement dependent lesion, Forssman vasculitis, is produced in guinea pigs by intradermal injection of rabbit anti-Forssman antiserum. The lesion is measured in terms of diameter, edema and hemorrhage and the extent to which a combined index of these is inhibited by prior intraperitoneal injection of the test compound at 200 mg./kg. is then reported, unless otherwise stated; (v) Forssman Shock Test--Lethal shock is produced in guinea pigs by an i.v. injection of anti-Forssman antiserum and the harmonic mean death time of treated guinea pigs is compared with that of simultaneous controls; (vi) Complement Level Reduction Test--In this test, the above dosed guinea pigs, or others, are bled for serum and the complement level is determined in undiluted serum by the capillary tube method of U.S. Pat. No. 3,876,376 and compared to undosed control guinea pigs; (vii) Cap 50 Test--Here, appropriate amounts of the test compound are added to a pool of guinea pig serum in vitro, after which the undiluted serum capillary tube assay referred to above is run. The concentration of compound inhibiting 50% is reported; (viii) Guinea Pig Intraperitoneal Test (GPIP)--Guinea Pigs weighing about 300 g. are dosed intraperitoneally (i.p.) with 200 mg./kg. of the test compound dissolved in saline and adjusted to pH 7-8. […] Percent inhibition is calculated by comparison with simultaneous controls. […]

The term inhibition denotes the relative decrease from the control value, in per cent.

On to `O=S(=O)([O-])c1cc(NS(=O)(=O)c2cc(S(=O)(=O)Nc3cc(S(=O)(=O)[O-])cc(S(=O)(=O)[O-])c3)c3cc(S(=O)(=O)Nc4cc(S(=O)(=O)[O-])cc(S(=O)(=O)[O-])c4)cc(S(=O)(=O)Nc4cc(S(=O)(=O)[O-])cc(S(=O)(=O)[O-])c4)c3c2)cc(S(=O)(=O)[O-])c1.[Na+].[Na+].[Na+].[Na+].[Na+].[Na+].[Na+].[Na+]` [5,5',5",5"'-[1,3,5,7-Naphthalenetetrayltetrakis(sulfonylimino)]tetrakis-1,3-benzenedisulfonic acid, octasodium salt], for which the “Cl 026* Wells” value in assay [1] was “+10 Wells”. Moreover, the “C-Late 035* Wells” value in assay [2] is listed as “+1 Wells”. Further, the “Shunt Inhibition 036* Wells” value in assay [3] is given as “+7 Wells”. Further, the inhibition at 200 mg/kg in assay [4] (0.5 h, serum 30 minutes after injection, read-out: In Vivo Activity (Guinea Pig) % Inhibition Intraperitoneal, 30 minutes) was -62%; in assay [4] (1 h, serum 60 minutes after injection, read-out: In Vivo Activity (Guinea Pig) % Inhibition Intraperitoneal, 60 minutes), -59%; in assay [4] (2 h, serum 120 minutes after injection, read-out: In Vivo Activity (Guinea Pig) % Inhibition Intraperitoneal, 120 minutes), -81%.
